Measured values as given in ChEMBL document CHEMBL1201862, “PubChem BioAssay data set” (2004).
Activity calls are given as the source filed them. For most assays here, no stated cut-off is given here; in the data, actives have a measured IC50 and inactives only a lower limit.

What was measured:
Large T antigen = Large T antigen (Simian virus 40, UniProt P03070); type: functional, Betapolyomavirus macacae;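 further: Confirmatory-stage PubChem screen for compounds that inhibit SV40 T antigen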
Bcl-2-related protein A1 = target: T1, Bcl-2-related protein A1 (Mus musculus, UniProt Q07440); type: functional;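 further: confirmatory dose–response counterscreen on Bfl-1, used to check hits from a UBC13 polyubiquitin inhibitor campaign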
T1 sequence (Q07440 whole entry): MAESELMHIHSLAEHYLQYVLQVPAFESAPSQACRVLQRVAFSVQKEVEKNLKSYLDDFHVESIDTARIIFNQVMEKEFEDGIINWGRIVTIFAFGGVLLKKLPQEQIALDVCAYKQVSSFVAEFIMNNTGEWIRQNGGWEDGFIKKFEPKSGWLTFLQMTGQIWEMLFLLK

[1] = target: T2, Ubiquitin-conjugating enzyme E2 N (Homo sapiens, UniProt P61088); type: functional
T2 sequence (P61088 whole entry): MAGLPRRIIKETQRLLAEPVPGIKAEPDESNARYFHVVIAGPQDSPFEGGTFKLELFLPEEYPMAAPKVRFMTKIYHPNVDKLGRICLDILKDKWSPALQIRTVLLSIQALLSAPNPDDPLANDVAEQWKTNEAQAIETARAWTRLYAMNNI

[2] = target: T2, Ubiquitin-conjugating enzyme E2 N; type: functional; remark: listed apart in the source
[3] = target: Heat shock protein HSP 90-alpha (Homo sapiens, UniProt P07900); type: functional, organism-based
Insulin-degrading enzyme [4] = target: T3, Insulin-degrading enzyme (Homo sapiens, UniProt P14735); experiment: recombinant IDE activation, cell-free – biochemical, fluorescence polarization, counter-screen for IDE activator project, dose response (AID 588681)
T3 sequence (P14735 whole entry): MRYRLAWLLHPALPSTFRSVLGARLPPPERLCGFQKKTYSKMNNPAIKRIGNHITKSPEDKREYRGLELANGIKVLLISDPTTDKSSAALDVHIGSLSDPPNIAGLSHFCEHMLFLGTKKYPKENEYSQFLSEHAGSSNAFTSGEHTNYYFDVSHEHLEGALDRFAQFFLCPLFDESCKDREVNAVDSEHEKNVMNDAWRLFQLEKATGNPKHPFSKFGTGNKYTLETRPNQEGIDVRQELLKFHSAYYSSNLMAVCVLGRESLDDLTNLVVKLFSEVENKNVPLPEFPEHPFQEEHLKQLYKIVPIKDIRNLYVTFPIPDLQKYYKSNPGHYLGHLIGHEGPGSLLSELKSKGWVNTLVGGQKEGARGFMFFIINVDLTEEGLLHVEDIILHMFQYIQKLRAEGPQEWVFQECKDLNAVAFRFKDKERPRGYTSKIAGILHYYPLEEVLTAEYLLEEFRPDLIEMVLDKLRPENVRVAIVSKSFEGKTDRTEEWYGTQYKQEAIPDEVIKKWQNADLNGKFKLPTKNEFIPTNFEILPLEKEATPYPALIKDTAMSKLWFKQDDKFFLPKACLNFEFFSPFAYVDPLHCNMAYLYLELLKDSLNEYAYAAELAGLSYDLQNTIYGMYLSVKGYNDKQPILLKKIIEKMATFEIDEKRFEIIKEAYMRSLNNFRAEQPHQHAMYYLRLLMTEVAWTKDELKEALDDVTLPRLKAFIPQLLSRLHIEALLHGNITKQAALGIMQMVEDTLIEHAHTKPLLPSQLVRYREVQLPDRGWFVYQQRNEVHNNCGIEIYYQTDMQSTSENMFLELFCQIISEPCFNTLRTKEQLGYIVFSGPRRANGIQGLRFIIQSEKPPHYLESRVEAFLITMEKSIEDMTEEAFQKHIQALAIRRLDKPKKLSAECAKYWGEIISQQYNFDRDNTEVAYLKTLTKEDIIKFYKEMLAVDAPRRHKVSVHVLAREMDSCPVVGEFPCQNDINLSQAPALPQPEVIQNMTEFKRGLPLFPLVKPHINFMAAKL

[5] = target: Apoptotic protease-activating factor 1 (Homo sapiens, UniProt O14727); type: functional
Insulin-degrading enzyme [6] = target: T3, Insulin-degrading enzyme; experiment: cellular IDE activation of Abeta substrate cleavage – fluorescence polarization, HEK cells, dose response (AID 588439); type: functional, cell-based
INS1 = experiment: INS-1E survival protection against cytokine death – cell-based, luminescence, retest, dose response (AID 449756); type: functional; conditions: Rattus norvegicus;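 further: cell death triggered by IL-1 beta plus TNF-alpha plus IFN-gamma mixture; protective hits raise ATP signal compared with cytokine alone wells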
HEK293 [7] = experiment: membrane integrity loss in HEK cells – cell-based, fluorescence, cytotoxicity control for IDE activator project, dose response (AID 588440); type: functional; conditions: Homo sapiens;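 further: cytotoxicity by LDH release measuring loss of membrane integrity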
[8] = target: Dual specificity tyrosine-phosphorylation-regulated kinase 1A (Rattus norvegicus, UniProt Q63470); type: biochemical, Homo sapiens
HEK293 [9] = experiment: optical interference in Abeta FP readout, dose response, artefact control for IDE activator project, biochemical, fluorescence polarization (AID 588442); type: functional, cell-based; conditions: Homo sapiens
[10] = rise of 2N DNA cells, HeLa – IC50, dose response (AID 1117349); type: functional, cell-based
[11] = glucagon-like peptide-1 release potency in STC-1, concentration-response, half-maximal inhibitory concentration in the STC-1 line (AID 1117345); type: functional, cell-based
[12] = rise of 4N DNA cells, HeLa – IC50, dose response (AID 1117351); type: functional, cell-based
[13] = Potency on glucagon-like peptide 1 release, dose-response in NCI-H716 cell line, half maximal inhibitory concentration (AID 1117344); type: functional, cell-based
[14] = target: T4, Sentrin-specific protease 8 (Homo sapiens, UniProt Q96LD8); experiment: inhibition of human SENP8 cleavage activity – biochemical, luminescence, SAR follow-up (AID 504501); type: functional
T4 sequence (Q96LD8 whole entry): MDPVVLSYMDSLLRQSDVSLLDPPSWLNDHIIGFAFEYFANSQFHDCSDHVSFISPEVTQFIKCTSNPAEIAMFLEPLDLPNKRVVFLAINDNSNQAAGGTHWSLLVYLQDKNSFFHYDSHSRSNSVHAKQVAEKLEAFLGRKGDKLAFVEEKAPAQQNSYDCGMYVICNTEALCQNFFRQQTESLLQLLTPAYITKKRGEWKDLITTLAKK

Caspase-3 [15] = target: T5, Caspase-3 (Homo sapiens, UniProt P42574); experiment: inhibition of recombinant caspase-3 activity – biochemical, luminescence, set 2, selectivity assay for SENP protease inhibitor project, SAR follow-up (AID 588599); type: functional
T5 sequence (P42574 whole entry): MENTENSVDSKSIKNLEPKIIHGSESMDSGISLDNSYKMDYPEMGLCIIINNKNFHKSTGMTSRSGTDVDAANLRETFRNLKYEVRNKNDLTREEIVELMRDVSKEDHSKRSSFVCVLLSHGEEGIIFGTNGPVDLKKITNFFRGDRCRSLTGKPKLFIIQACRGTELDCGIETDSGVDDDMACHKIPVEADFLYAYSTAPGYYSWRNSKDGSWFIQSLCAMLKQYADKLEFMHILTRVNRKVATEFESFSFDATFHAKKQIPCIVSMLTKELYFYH

[16] = target: T4, Sentrin-specific protease 8; experiment: inhibition of sentrin protease 8 – biochemical, luminescence, set 2, SAR follow-up (AID 588601); type: functional
Caspase-3 [17] = target: T5, Caspase-3; experiment: SAR Analysis of small molecule inhibitors of Sentrin-specific proteases (SENPs) using a Caspase-3 Selectivity assay. [Related pubchem assays (depositor defined):AID2540, AID2599, AID434973, AID489001]; type: functional
[18] = target: T6, Sentrin-specific protease 7 (Homo sapiens, UniProt Q9BQF6); experiment: inhibition of human SENP7 cleavage activity – biochemical, luminescence, set 2, SAR follow-up (AID 588600); type: functional
T6 sequence (Q9BQF6 whole entry): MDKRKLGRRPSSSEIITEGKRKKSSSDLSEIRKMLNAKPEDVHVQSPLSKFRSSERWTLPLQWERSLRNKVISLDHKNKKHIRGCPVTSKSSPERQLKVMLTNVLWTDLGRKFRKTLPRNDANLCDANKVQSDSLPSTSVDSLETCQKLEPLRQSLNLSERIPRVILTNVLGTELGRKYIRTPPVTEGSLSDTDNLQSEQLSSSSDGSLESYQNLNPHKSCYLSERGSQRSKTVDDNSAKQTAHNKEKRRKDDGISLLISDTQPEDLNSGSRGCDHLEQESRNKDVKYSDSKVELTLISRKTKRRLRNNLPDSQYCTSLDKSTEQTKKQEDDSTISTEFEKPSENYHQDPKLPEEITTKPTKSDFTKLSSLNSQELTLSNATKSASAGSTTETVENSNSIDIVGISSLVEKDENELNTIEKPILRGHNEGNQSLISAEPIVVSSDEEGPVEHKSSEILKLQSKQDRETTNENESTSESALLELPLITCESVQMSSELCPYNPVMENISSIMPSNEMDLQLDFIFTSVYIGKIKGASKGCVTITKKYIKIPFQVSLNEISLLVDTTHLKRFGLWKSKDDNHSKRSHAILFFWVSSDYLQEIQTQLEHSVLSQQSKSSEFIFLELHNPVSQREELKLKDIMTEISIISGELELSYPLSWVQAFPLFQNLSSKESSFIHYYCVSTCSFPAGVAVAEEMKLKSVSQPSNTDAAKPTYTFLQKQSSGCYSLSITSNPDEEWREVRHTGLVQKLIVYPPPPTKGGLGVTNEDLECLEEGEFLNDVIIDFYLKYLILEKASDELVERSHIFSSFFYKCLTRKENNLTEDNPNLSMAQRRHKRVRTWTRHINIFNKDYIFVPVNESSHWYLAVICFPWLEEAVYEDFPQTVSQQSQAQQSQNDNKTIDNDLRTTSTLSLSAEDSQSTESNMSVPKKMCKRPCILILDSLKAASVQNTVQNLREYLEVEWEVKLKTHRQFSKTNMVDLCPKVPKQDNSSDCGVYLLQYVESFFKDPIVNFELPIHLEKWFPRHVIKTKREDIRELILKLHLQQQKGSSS

[19] = target: T7, Sentrin-specific protease 6 (Homo sapiens, UniProt Q9GZR1); experiment: SAR Analysis of small molecule inhibitors of Sentrin-specific protease 6 (SENP6) using a Luminescent assay. [Related pubchem assays (depositor defined):AID2582, AID2599]; type: functional
T7 sequence (Q9GZR1 whole entry): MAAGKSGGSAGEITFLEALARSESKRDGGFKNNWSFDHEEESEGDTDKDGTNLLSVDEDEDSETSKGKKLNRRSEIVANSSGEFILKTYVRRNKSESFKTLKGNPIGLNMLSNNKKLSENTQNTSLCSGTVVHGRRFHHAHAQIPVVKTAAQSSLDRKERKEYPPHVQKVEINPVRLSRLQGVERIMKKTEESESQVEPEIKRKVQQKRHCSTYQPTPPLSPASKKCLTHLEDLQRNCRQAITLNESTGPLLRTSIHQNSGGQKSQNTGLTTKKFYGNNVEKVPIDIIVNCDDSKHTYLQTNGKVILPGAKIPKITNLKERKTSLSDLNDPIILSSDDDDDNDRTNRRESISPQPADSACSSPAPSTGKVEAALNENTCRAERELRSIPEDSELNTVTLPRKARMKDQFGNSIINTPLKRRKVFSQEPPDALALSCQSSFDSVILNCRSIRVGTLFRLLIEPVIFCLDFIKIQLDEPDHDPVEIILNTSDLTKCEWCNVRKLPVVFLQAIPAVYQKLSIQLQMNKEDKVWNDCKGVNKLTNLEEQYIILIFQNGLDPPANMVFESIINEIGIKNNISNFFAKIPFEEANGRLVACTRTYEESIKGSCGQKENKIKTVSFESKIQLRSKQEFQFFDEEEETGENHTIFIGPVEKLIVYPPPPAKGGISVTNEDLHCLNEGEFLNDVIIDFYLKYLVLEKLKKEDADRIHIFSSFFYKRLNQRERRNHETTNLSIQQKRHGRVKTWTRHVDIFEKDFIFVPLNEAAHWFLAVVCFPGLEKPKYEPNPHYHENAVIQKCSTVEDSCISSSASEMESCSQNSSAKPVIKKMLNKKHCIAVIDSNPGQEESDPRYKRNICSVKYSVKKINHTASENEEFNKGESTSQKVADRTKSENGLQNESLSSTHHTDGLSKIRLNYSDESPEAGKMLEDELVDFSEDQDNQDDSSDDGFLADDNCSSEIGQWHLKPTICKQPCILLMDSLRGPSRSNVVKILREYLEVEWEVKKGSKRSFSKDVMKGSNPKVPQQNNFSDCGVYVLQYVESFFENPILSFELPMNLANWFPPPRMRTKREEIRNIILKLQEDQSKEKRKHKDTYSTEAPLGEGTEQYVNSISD

[20] = target: T7, Sentrin-specific protease 6; experiment: inhibition of human SENP6 catalytic domain – biochemical, luminescence, set 2, SAR follow-up (AID 588598); type: functional
[21] = target: T6, Sentrin-specific protease 7; experiment: inhibition of human SENP7 cleavage activity – biochemical, luminescence, SAR follow-up (AID 504497); type: functional

Large T antigen, sequence (P03070 whole entry): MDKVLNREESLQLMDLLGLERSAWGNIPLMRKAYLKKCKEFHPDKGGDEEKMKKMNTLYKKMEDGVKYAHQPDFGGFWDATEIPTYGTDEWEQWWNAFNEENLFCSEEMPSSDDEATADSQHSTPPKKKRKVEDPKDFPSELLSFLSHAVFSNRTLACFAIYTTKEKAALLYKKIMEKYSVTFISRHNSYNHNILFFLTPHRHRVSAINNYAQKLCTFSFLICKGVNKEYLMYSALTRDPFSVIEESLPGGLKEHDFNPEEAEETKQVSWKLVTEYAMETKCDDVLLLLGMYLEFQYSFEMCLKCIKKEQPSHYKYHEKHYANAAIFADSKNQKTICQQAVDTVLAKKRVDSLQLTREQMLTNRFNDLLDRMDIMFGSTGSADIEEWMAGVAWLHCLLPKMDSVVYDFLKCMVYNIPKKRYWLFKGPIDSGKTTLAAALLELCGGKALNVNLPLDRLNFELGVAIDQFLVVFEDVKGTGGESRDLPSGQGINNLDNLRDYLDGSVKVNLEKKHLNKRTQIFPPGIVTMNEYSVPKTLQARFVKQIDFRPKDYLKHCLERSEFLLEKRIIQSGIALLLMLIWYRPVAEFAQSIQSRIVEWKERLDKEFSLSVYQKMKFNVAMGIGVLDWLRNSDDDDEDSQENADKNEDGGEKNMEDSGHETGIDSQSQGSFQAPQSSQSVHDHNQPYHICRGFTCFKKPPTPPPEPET
Apoptotic protease-activating factor 1, sequence (O14727 whole entry): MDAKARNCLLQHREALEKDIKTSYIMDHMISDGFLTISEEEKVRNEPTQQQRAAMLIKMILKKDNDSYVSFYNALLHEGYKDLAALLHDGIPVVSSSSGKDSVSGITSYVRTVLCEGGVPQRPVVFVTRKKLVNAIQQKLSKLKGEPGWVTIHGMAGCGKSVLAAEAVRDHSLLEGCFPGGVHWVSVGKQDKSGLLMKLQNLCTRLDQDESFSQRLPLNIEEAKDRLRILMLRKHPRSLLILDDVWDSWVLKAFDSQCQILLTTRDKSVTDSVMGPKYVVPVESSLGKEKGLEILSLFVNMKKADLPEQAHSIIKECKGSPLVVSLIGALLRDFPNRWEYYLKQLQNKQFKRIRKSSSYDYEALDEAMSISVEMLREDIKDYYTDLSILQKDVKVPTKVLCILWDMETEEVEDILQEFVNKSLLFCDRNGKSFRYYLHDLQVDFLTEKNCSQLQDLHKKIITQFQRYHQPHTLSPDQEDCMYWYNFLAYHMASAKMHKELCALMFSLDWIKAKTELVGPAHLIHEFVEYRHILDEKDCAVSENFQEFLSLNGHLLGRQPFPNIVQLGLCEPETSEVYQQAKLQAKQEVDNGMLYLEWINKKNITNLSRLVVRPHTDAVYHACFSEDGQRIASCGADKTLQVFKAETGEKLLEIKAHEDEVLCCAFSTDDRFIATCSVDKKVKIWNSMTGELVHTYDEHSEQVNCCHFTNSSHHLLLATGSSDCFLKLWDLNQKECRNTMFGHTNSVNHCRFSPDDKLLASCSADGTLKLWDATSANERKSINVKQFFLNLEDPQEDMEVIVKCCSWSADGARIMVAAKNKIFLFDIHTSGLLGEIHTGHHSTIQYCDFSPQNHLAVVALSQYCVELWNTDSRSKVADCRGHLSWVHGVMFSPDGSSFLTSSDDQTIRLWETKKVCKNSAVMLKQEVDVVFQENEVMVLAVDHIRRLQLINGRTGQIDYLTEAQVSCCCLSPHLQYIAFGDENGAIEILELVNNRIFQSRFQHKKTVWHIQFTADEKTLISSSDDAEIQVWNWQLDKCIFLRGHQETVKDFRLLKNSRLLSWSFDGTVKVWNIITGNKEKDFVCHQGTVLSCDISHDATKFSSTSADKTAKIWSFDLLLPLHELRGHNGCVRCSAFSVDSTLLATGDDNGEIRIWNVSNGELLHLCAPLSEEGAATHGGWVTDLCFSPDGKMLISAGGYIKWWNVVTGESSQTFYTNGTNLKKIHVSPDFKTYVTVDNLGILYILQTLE

## CCCCCCCCCCCCCCCC[N+](C)(C)CCN(Cc1ccc(OC)cc1)c1ncccn1 [THONZONIUM BROMIDE]
Large T antigen
  IC50: 15.4 µM (active)
Bcl-2-related protein A1
  IC50: 6.44 µM (active)
[1]
  IC50: 2.86 µM (active)
[2]
  IC50: 2.99 µM (active)
[3]
  AC50: 6.06 µM (active)
Insulin-degrading enzyme [4]
  EC50: 53.3 µM (inactive)
[5]
  IC50: 8.37 µM (active)
Insulin-degrading enzyme [6]
  EC50: > 54.7 µM (inactive)
INS1
  AC50: 2.54 µM (active)
HEK293 [7]
  IC50: 5.21 µM (active)
[8]
  AC50: 9.42 µM (active)
HEK293 [9]
  EC50: > 55.9 µM (inactive)
[10]
  IC50: > 10 µM (inactive)
[11]
  IC50: > 40 µM (inactive)
[12]
  IC50: > 10 µM (inactive)
[13]
  IC50: 17.8 µM (inactive)

## COc1cccc(-c2nc(/C=C/c3ccccc3)no2)c1
[14]
  IC50: 52 µM (active)
Caspase-3 [15]
  IC50: 33.5 µM (active)
[16]
  IC50: 12.2 µM (active)
Caspase-3 [17]
  IC50: 47 µM (active)
[18]
  IC50: 12.2 µM (active)
[19]
  IC50: 45 µM (active)
[20]
  IC50: 13.5 µM (active)
[21]
  IC50: 14 µM (active)
